Values quoted from earlier work as cited in US12359156B2, “Platform and method for testing antibiotic sensitivity of a polymicrobial infection” (Wisconsin Alumni Research Foundation, priority 2018, dated 2025).

Test system: infection (patients' bacterial pathogens)
Conditions: phase 3 clinical trial

In the case of `CO/N=C(\C(=O)N[C@@H]1C(=O)N2C(C(=O)O)=C(COC(C)=O)CS[C@H]12)c1csc(N)n1` [cefotaxime], the “patients who responded to the antibiotic therapy” value (patients with a "resistant" antibiotic sensitivity test result) is listed as 64% and the “patients who would respond to the antibiotic therapy” value (patients with a "sensitive" antibiotic sensitivity test result, best case scenario) is listed as 93%.
